Drawing on patent US20260355196A1, “INHIBITORS AND DEGRADERS OF PIP4K PROTEIN” (Larkspur Biosciences, Inc., priority 2023, published 2026), this text covers DC50 for 18 compounds.

Where only a bound is given, the exact number is not on record here.

The first assay has as its target T1, PIP4K2C (Homo sapiens, UniProt Q8TBX8).
T1 sequence (Q8TBX8 1-421): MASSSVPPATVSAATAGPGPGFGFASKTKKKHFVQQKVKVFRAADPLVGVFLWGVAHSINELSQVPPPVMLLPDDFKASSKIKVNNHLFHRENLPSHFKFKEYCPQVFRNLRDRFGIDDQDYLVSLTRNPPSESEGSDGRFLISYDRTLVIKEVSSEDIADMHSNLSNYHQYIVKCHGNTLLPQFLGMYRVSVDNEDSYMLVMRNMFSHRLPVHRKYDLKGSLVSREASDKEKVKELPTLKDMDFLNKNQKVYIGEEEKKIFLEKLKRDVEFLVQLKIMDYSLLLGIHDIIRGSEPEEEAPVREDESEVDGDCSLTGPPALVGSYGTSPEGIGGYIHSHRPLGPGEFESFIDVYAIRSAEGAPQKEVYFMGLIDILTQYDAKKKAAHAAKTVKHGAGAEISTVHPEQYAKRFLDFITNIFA
The assay is described as follows: HiBiT PIP4K2C degradation assay in MOLT-4 cells (endogenous PIP4K2C C-terminally tagged with HiBiT). The class given is cell-based. As to conditions: 6 hours of incubation time, rather than 24 hours; MOLT-4, top concentration 10 micromolar; read-out: HiBIT-degradation MOLT4 PIP4k2C DC50 (6 hours, marked *). Further details: untagged in primary human PBMCs and monocyte-derived dendritic cells. The method, boiled down:
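In a CRISPR-engineered MOLT-4 clone carrying HiBiT-tagged PIP4K2C, degradation was assessed after 24 or 6 hours of dosing (10 micromolar top, 3-fold steps). Luminescence from lytic HiBiT detection was fitted to obtain DC50.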
Turning to `O=C1CC[C@@H](Nc2ccc(C3CCN([C@H]4CC[C@H](NC(=O)[C@H]5CC[C@H](Nc6ncc(F)c(-c7cccc(-c8ccc[nH]c8=O)c7)n6)CC5)CC4)CC3)c(F)c2)C(=O)N1` (single isomer, unassigned) [Compound 419], the DC50 – broadly, the concentration giving 50% degradation – is under 500 nM.
Take `O=C1CCC(Nc2ccc(C3CCN([C@H]4CC[C@H](NC(=O)[C@H]5CC[C@H](Nc6ncc(F)c(-c7ccnc(N8CCCOC8=O)c7)n6)CC5)CC4)CC3)c(F)c2)C(=O)N1` (stereo partly drawn) [Compound 550, trans-N-((trans)-4-(4-(4-((2,6-dioxopiperidin-3-yl)amino)-2-fluorophenyl)piperidin-1-yl)cyclohexyl)-4-((5-fluoro-4-(2-(2-oxo-1,3-oxazinan-3-yl)pyridin-4-yl)pyrimidin-2-yl)amino)cyclohexane-1-carboxamide]: the 50% degradation concentration (DC50) was under 500 nM.
The same measure, in the same setting: next, `Cn1nc(C2CCC(=O)NC2=O)c2ccc(C3CCN(CC4CCN(C(=O)O[C@H]5CC[C@H](Nc6ncc(F)c(-c7cccc(-n8ccccc8=O)c7)n6)CC5)CC4)CC3)cc21` (stereo partly drawn) [Compound 467, trans-4-((5-fluoro-4-(3-(2-oxopyridin-1 (2H)-yl)phenyl)pyrimidin-2-yl)amino)cyclohexyl 4-((4-(3-(2,6-dioxopiperidin-3-yl)-1-methyl-1H-indazol-6-yl)piperidin-1-yl)methyl)piperidine-1-carboxylate]: under 500 nM; `O=C1CC[C@H](Nc2ccc(C3CCN(CC4CCN(C(=O)[C@H]5CC[C@H](Nc6ncc(F)c(-c7cccc(-n8ccccc8=O)c7)n6)CC5)CC4)CC3)c(F)c2)C(=O)N1` (single isomer, unassigned) [Compound 456]: under 500 nM.
For the compound `O=C1CCC(Nc2ccc(N3CCC(N4CCN(C(=O)O[C@H]5CC[C@H](Nc6ncc(F)c(-c7cccc(-n8ccccc8=O)c7)n6)CC5)CC4)C(F)C3)c(F)c2)C(=O)N1` (stereo partly drawn) [Compound 668, trans-[4-[[5-fluoro-4-[3-(2-oxo-1-pyridyl)phenyl]pyrimidin-2-yl]amino]cyclohexyl]4-[1-[4-[(2,6-dioxo-3-piperidyl)amino]-2-fluoro-phenyl]-3-fluoro-4-piperidyl]piperazine-1-carboxylate], the DC50 is over 5000 nM.
Take `Cc1ccn(-c2cccc(-c3nc(N[C@H]4CC[C@H](C(=O)N5CCC(O)(CN6CCN(c7ccc(NC8CCC(=O)NC8=O)cc7F)CC6)CC5)CC4)ncc3F)c2)c(=O)c1` (stereo partly drawn) [Compound 470, trans-3-((3-fluoro-4-(4-((1-(4-((5-fluoro-4-(3-(4-methyl-2-oxopyridin-1 (2H)-yl)phenyl)pyrimidin-2-yl)amino)cyclohexane-1-carbonyl)-4-hydroxypiperidin-4-yl)methyl)piperazin-1-yl)phenyl)amino)piperidine-2,6-dione]: the DC50 is under 500 nM.
The same measure, in the same setting: for `O=C1CC[C@@H](Nc2ccc(N3CCC(N4CCC(C(=O)N[C@H]5CC[C@H](Nc6ncc(F)c(-c7cccc(N8CCCOC8=O)c7)n6)CC5)CC4)CC3)c(F)c2)C(=O)N1` [Compound 543, 1′-(4-(((R)-2,6-dioxopiperidin-3-yl)amino)-2-fluorophenyl)-N-((trans)-4-((5-fluoro-4-(3-(2-oxo-1,3-oxazinan-3-yl)phenyl)pyrimidin-2-yl)amino)cyclohexyl)-[1,4′-bipiperidine]-4-carboxamide] the value was under 500 nM.
For `O=C1CCC(Nc2ccc(C3CCN([C@H]4CC[C@H](C(=O)N[C@H]5CC[C@H](Nc6ncc(F)c(-c7cccc(N8CCCCC8=O)c7)n6)CC5)CC4)CC3)c(F)c2)C(=O)N1` (single isomer, unassigned) [Compound 592], the DC50 is under 500 nM.
The same measure, in the same setting: for `O=C1CCC(Nc2ccc(C3CCN([C@H]4CC[C@H](NC(=O)[C@H]5CC[C@H](Nc6ncc(F)c(-c7cccc(N8CCOCC8)c7)n6)CC5)CC4)CC3)c(F)c2)C(=O)N1` (stereo partly drawn) [Compound 657, trans-(1r,4R)—N-((1r,4R)-4-(4-(4-((2,6-dioxopiperidin-3-yl)amino)-2-fluorophenyl)piperidin-1-yl)cyclohexyl)-4-((5-fluoro-4-(3-morpholinophenyl)pyrimidin-2-yl)amino)cyclohexane-1-carboxamide] the value was under 500 nM; for `O=C1CCC(Nc2ccc(C3CCN(C[C@H]4CC[C@H](C(=O)N5CCC(Nc6ncc(F)c(-c7cccc(N8CCOCC8=O)c7)n6)CC5)CC4)CC3)c(F)c2)C(=O)N1` (stereo partly drawn) [Compound 683, 3-((3-fluoro-4-(1-(((trans)-4-(4-((5-fluoro-4-(3-(3-oxomorpholino)phenyl)pyrimidin-2-yl)amino)piperidine-1-carbonyl)cyclohexyl)methyl)piperidin-4-yl)phenyl)amino)piperidine-2,6-dione], over 5000 nM.

The assay is the same for the next values; noted with them: 24 hours incubation, MOLT-4, top concentration 10 micromolar; read-out: HiBIT-degradation MOLT4 PIP4k2C 24 hours DC50.
Take `Cn1c(=O)n(C2CCC(=O)NC2=O)c2ccc(C3CCN(CCC4CCN(C(=O)[C@H]5CCC[C@@H](Nc6ncc(Cl)c(-c7cccc(-c8ccccc8)c7)n6)C5)CC4)CC3)cc21` (stereo partly drawn) [Compound 281, 3-(5-(1-(2-(1-((1S,3R)-3-((4-([1,1′-biphenyl]-3-yl)-5-chloropyrimidin-2-yl)amino)cyclohexane-1-carbonyl)piperidin-4-yl)ethyl)piperidin-4-yl)-3-methyl-2-oxo-2,3-dihydro-1H-benzo[d]imidazol-1-yl)piperidine-2,6-dione]: the DC50 is under 500 nM.
On to `O=C1CCC(N2Cc3cc(OC4CCN(C(=O)C5CCN(C(=O)C6CCC[C@@H](Nc7ncc(Cl)c(-c8cccc(-c9ccccc9)c8)n7)C6)CC5)CC4)ccc3C2=O)C(=O)N1` (stereo in doubt) [Compound 77, cis-3-(5-((1-(1-(3-((4-([1,1′-biphenyl]-3-yl)-5-chloropyrimidin-2-yl)amino)cyclohexane-1-carbonyl)piperidine-4-carbonyl)piperidin-4-yl)oxy)-1-oxoisoindolin-2-yl)piperidine-2,6-dione], for which the DC50 is under 500 nM.
`O=C1CCC(n2c(=O)oc3cc(C4CCN(CC5CCN(CC(=O)N6CCC(Nc7ncc(F)c(-c8cccc(N9CCOC9=O)c8)n7)CC6)CC5)CC4)ccc32)C(=O)N1` (stereo not drawn) [Compound 372, 3-(6-(1-((1-(2-(4-((5-fluoro-4-(3-(2-oxooxazolidin-3-yl)phenyl)pyrimidin-2-yl)amino)piperidin-1-yl)-2-oxoethyl)piperidin-4-yl)methyl)piperidin-4-yl)-2-oxobenzo[d]oxazol-3 (2H)-yl)piperidine-2,6-dione]: the DC50 is under 500 nM.
On the same count and under the same terms, for `O=C1CCC(c2ccc(N3CCC(O)(CC(=O)N4CCC(C(=O)N5CCC(Nc6ncc(Cl)c(-c7cccc(-c8ccc(F)cc8)c7)n6)CC5)CC4)CC3)c(F)c2)C(=O)N1` (stereo not drawn) [Compound 282, 3-(4-(4-(2-(4-(4-((5-chloro-4-(4′-fluoro-[1,1′-biphenyl]-3-yl)pyrimidin-2-yl)amino)piperidine-1-carbonyl)piperidin-1-yl)-2-oxoethyl)-4-hydroxypiperidin-1-yl)-3-fluorophenyl)piperidine-2,6-dione] the value was under 500 nM.
The same measure, in the same setting: for `O=C1CCC(N2Cc3cc(C4CCN(C5CCN(CCC(=O)N6CCC(Nc7ncc(Cl)c(-c8cccc(-c9ccccc9)c8)n7)CC6)CC5)CC4)ccc3C2=O)C(=O)N1` (stereo not drawn) [Compound 86, 3-(5-(1′-(3-(4-((4-([1,1′-biphenyl]-3-yl)-5-chloropyrimidin-2-yl)amino)piperidin-1-yl)-3-oxopropyl)-[1,4′-bipiperidin]-4-yl)-1-oxoisoindolin-2-yl)piperidine-2,6-dione] the value was 500 to 1000 nM.
`O=C1CCC(n2c(=O)oc3cc(C4CCN(CCC5CCN(C(=O)[C@H]6C[C@@H](Nc7ncc(F)c(-c8cccc(-n9ccccc9=O)c8)n7)C6)CC5)CC4)ccc32)C(=O)N1` (stereo partly drawn) [Compound 325, cis-3-(6-(1-(2-(1-(3-((5-fluoro-4-(3-(2-oxopyridin-1(2H)-yl)phenyl)pyrimidin-2-yl)amino)cyclobutane-1-carbonyl)piperidin-4-yl)ethyl)piperidin-4-yl)-2-oxobenzo[d]oxazol-3 (2H)-yl)piperidine-2,6-dione]: the DC50 was under 500 nM.

Staying with this assay, now noted: read-out: HiBIT-degradation MOLT4 PIP4k2C DC50 (6 hours, marked *); 6 hours of incubation time, rather than 24 hours; MOLT-4, top concentration 10 micromolar.
As to `Cn1nc(N2CCC(=O)NC2=O)c2ccc(N3CCN(CC4CCN(C(=O)O[C@H]5CC[C@H](Nc6ncc(F)c(-c7cccc(-c8ccccc8)c7)n6)CC5)CC4)CC3)cc21` [Compound 634, trans-4-((4-([1,1′-biphenyl]-3-yl)-5-fluoropyrimidin-2-yl)amino)cyclohexyl 4-((4-(3-(2,4-dioxotetrahydropyrimidin-1 (2H)-yl)-1-methyl-1H-indazol-6-yl)piperazin-1-yl)methyl)piperidine-1-carboxylate], the DC50 was under 500 nM.
For the compound `O=C1CCC(Nc2ccc(N3CCN(C4CCN(C(=O)O[C@H]5CC[C@H](Nc6ncc(F)c(-c7cccc(N8CCCCC8=O)c7)n6)CC5)CC4)CC3)c(F)c2)C(=O)N1` (stereo partly drawn) [Compound 675, trans-4-((5-fluoro-4-(3-(2-oxopiperidin-1-yl)phenyl)pyrimidin-2-yl)amino)cyclohexyl 4-(4-(4-((2,6-dioxopiperidin-3-yl)amino)-2-fluorophenyl)piperazin-1-yl)piperidine-1-carboxylate], the DC50 was under 500 nM.
